Experiments:
BT-474 = test: Inhibition of autophagy in human BT-474 cells; format: functional, cell-based
[1] = target: T1, Serine/threonine-protein kinase ULK1 (Homo sapiens, UniProt O75385); test: Inhibition of ULK1 (unknown origin)
T1 sequence (O75385 whole entry): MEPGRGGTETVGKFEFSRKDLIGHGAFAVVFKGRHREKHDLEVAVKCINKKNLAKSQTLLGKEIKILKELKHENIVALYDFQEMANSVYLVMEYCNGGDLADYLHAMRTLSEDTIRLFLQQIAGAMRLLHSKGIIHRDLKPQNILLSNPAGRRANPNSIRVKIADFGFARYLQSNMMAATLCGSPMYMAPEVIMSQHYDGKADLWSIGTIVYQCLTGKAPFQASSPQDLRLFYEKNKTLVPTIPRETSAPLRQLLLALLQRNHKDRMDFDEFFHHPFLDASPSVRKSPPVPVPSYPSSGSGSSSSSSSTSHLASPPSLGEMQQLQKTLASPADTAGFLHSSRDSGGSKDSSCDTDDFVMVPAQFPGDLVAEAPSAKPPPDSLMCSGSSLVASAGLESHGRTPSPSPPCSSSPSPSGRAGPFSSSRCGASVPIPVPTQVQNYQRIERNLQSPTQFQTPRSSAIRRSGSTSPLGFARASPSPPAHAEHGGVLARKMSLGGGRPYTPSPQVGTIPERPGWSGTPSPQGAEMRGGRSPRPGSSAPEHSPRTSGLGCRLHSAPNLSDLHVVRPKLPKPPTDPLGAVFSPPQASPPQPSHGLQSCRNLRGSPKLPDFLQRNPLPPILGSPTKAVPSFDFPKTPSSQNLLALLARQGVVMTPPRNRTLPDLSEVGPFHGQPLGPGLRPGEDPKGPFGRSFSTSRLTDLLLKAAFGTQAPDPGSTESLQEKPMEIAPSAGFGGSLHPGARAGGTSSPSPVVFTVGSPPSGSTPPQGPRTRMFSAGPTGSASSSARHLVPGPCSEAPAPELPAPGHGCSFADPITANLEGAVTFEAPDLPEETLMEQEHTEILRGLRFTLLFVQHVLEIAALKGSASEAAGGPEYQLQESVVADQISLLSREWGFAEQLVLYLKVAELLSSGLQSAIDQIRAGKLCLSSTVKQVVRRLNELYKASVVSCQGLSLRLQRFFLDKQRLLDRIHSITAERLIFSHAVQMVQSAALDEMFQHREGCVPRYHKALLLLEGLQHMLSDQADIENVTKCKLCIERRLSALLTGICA

[2] = target: T2, Serine/threonine-protein kinase ULK2 (Homo sapiens, UniProt Q8IYT8); test: Inhibition of ULK2 (unknown origin)
T2 sequence (Q8IYT8 whole entry): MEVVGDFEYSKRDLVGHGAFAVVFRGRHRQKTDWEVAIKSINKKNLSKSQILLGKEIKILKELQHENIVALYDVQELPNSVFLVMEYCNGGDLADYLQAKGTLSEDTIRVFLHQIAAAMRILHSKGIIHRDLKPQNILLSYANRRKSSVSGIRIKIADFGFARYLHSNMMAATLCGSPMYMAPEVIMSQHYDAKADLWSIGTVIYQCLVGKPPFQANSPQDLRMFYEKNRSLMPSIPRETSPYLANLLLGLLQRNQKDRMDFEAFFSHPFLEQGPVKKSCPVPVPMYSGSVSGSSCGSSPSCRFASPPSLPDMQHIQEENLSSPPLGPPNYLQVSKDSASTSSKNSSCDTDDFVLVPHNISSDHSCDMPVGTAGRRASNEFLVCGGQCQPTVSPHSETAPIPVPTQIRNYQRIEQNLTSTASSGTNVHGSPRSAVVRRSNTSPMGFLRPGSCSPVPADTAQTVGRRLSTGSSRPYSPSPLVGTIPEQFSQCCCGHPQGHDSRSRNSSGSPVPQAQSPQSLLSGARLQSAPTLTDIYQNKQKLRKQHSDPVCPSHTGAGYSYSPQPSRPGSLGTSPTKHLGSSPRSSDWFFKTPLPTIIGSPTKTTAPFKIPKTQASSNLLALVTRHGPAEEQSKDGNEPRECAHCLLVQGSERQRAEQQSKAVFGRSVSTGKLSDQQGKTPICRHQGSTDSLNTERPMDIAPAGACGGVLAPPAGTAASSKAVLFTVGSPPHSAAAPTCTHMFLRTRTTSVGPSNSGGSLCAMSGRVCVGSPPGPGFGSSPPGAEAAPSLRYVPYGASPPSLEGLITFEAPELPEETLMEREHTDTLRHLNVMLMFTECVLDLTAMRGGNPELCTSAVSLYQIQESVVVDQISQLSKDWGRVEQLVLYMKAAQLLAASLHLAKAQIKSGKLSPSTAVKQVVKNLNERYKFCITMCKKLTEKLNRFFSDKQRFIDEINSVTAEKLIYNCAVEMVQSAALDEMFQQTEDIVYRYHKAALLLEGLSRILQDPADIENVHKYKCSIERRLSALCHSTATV

[3] = Inhibition of bafilomycin induced autophagic flux in mouse embryonic fibroblast cells assessed as fold change in LC3-II levels at 1 uM incubated for 1 hr by immunoblot analysis relative to control; format: functional
[4] = target: Phosphatidylinositol 4,5-bisphosphate 3-kinase catalytic subunit gamma isoform (Homo sapiens, UniProt P48736); test: Inhibition of P13Kgamma (unknown origin)
Phosphatidylinositol 4,5-bisphosphate 3-kinase catalytic subunit gamma isoform, sequence (P48736 whole entry, canonical isoform): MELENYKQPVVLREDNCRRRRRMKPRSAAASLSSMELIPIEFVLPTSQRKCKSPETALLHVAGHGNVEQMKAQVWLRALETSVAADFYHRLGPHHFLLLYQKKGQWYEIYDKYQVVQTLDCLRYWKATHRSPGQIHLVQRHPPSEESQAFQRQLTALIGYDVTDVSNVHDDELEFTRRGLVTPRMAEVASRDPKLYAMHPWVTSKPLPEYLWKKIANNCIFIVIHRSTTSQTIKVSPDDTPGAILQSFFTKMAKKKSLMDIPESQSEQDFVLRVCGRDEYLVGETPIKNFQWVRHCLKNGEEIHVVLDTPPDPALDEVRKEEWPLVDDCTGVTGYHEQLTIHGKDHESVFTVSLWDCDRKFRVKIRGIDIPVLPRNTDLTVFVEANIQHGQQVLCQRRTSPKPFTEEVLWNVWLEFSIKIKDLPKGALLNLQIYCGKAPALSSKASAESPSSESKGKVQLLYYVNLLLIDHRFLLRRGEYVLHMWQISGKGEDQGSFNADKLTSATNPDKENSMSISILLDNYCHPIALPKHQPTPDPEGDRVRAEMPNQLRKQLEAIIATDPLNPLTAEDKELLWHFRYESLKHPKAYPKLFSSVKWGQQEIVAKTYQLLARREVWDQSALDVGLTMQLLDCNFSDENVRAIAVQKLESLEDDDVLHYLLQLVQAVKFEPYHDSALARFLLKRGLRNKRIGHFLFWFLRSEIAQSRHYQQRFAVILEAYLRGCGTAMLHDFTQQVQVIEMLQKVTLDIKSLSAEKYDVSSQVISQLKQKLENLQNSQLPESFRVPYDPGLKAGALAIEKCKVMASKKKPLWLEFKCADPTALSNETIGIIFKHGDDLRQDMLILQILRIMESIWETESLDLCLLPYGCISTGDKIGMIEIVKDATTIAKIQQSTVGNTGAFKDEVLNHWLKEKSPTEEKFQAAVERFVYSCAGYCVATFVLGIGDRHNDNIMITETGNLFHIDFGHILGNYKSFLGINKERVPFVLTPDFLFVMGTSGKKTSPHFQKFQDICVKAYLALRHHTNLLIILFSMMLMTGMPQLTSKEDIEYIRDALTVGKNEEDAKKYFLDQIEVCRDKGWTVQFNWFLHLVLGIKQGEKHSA

[5] = Inhibition of V-ATPase (unknown origin); parameters: species or system Homo sapiens
[6] = target: AMP-activated protein kinase, AMPK; test: Inhibition of rat AMPK; format: protein-complex assay

CN1CCN(Cc2cc(CNC3(c4ccccc4F)CCCC3)ccc2O)CC1
EC50 (BT-474; read-out: EC50): 9500 nM

O=C(NCCCNc1nc(Nc2cccc(CN3CCOCC3)c2)ncc1C1CC1)C1CC1
IC50 [1]: 2.9 nM
IC50 [2]: 1.1 nM
fold change (FC) [3]: 2

Cn1cnc(N)c2ncnc1-2 [3-METHYLADENINE]
IC50 [4]: 60000 nM

CO/C1=C\C(C)=C\[C@@H](C)[C@@H](O)[C@@H](C)C/C(C)=C/C=C/[C@H](OC)[C@@H]([C@@H](C)[C@@H](O)[C@H](C)[C@@]2(O)C[C@@H](O)[C@H](C)[C@@H](C(C)C)O2)OC1=O [BAFILOMYCIN A1]
IC50 [5]: 0.44 nM

CCN(CC)CCCC(C)Nc1ccnc2cc(Cl)ccc12 (centres undefined) [CHLOROQUINE]
EC50 (BT-474): 4800 nM

c1cc(-c2cnn3cc(-c4ccc(OCCN5CCCCC5)cc4)cnc23)ccn1 [DORSOMORPHIN]
IC50 [6]: 1280 nM

CCN(CC)CCNC(=O)c1c(C)[nH]c(/C=C2\C(=O)Nc3ccc(F)cc32)c1C [SUNITINIB]
IC50 [6]: 62 nM

— ChEMBL document CHEMBL5247623, “The SAR and action mechanisms of autophagy inhibitors that eliminate drug resistance” (Eur J Med Chem, 2022)
